Test results reported in ChEMBL document CHEMBL1641582, “Synthesis and in vitro evaluation of 2-amino-4-N-piperazinyl-6-(3,4-dimethoxyphenyl)-pteridines as dual immunosuppressive and anti-inflammatory agents” (Bioorg Med Chem Lett, 2011).
pIC50: −log10 of the molar value.

Legend:
[1] = Immunosuppressive activity in human T cells assessed as inhibition of LFA1-mediated cell proliferation by mixed lymphocyte reaction assay; assay type: functional, cell-based
[2] = tested on: PBMC; assay: Antiinflammatory activity in human PBMC assessed as inhibition of LPS-induced TNFalpha production; assay type: functional, cell-based

| SMILES | pIC50 [1] | pIC50 [2] |
| --- | --- | --- |
| COc1ccc(-c2cnc3nc(N)nc(N4CCC(C)CC4)c3n2)cc1OC | 6.10 | 6.52 |
| CCOc1nc(N)nc2ncc(-c3ccc(OC)cc3)nc12 | < 5.00 | 5.35 |
| COc1ccc(-c2cnc3nc(N)nc(N4CCN(Cc5ccccc5F)CC4)c3n2)cc1OC | 6.15 | 6.70 |
| COc1ccc(-c2cnc3nc(N)nc(N4CCN(C(=O)NCc5ccccc5)CC4)c3n2)cc1OC | 7.74 |  |
| COc1ccc(-c2cnc3nc(N)nc(N4CCN(C(=O)Nc5ccccc5)CC4)c3n2)cc1OC | 8.47 | 7.05 |
| COc1ccc(-c2cnc3nc(N)nc(OC(C)C)c3n2)cc1OC | 6.40 | 5.64 |
| CC(C)Oc1nc(N)nc2ncc(-c3ccc(C(F)(F)F)cc3)nc12 | < 5.00 | 5.04 |
| CCOc1nc(N)nc2ncc(-c3ccc(F)c(F)c3)nc12 | < 5.00 | < 5.00 |
| COc1ccc(-c2cnc3nc(N)nc(NC4CCCC4)c3n2)cc1OC | 6.10 | 6.22 |
| COc1ccc(-c2cnc3nc(N)nc(N4CCN(c5ccc(C)cc5)CC4)c3n2)cc1OC | 6.52 | 8.00 |
| COc1ccc(-c2cnc3nc(N)nc(N4CCN(C(=O)NCc5ccc(F)cc5)CC4)c3n2)cc1OC | 7.43 | 6.15 |
| Cc1ccc(-c2cnc3nc(N)nc(OC(C)C)c3n2)cc1C | 5.00 | 5.17 |
| COc1ccc(-c2cnc3nc(N)nc(N4CCN(c5ccc(F)cc5)CC4)c3n2)cc1OC | 7.00 | 7.30 |
| COc1ccc(-c2cnc3nc(N)nc(NCc4ccccc4)c3n2)cc1OC | 4.89 | 5.19 |
| COc1ccc(-c2cnc3nc(N)nc(N4CCN(C(=O)COc5ccccc5)CC4)c3n2)cc1OC | 8.40 | 7.10 |
| CCOc1ccc(-c2cnc3nc(N)nc(OC(C)C)c3n2)cc1 | 5.00 | 5.00 |
| COc1ccc(-c2cnc3nc(N)nc(N4CCN(C(=O)Nc5ccc(C)cc5)CC4)c3n2)cc1OC | 9.10 | 6.37 |
| COc1ccc(-c2cnc3nc(N)nc(N4CCN(C(=O)c5ccccc5)CC4)c3n2)cc1OC | 6.40 | 6.40 |
| CCOc1nc(N)nc2ncc(-c3ccc(CC)cc3)nc12 | 5.09 | 5.07 |
| COc1ccc(-c2cnc3nc(N)nc(N4CCN(C(=O)Nc5ccc(C#N)cc5)CC4)c3n2)cc1OC | 7.13 | 6.20 |
| CCOc1nc(N)nc2ncc(-c3ccc(C(F)(F)F)cc3)nc12 | 5.00 | < 5.00 |

| SMILES | pIC50 [1] | pIC50 [2] |
| --- | --- | --- |
| COc1ccc(-c2cnc3nc(N)nc(NC(C)C)c3n2)cc1OC | 6.22 | 6.52 |
| CC(C)Oc1nc(N)nc2ncc(-c3ccc(C#N)cc3)nc12 | < 5.00 | 5.20 |
| COc1ccc(-c2cnc3nc(N)nc(N4CCN(Cc5ccc(C(C)(C)C)cc5)CC4)c3n2)cc1OC | 5.37 | 6.15 |
| COc1ccc(-c2cnc3nc(N)nc(NCc4cccs4)c3n2)cc1OC | 5.39 | 5.14 |
| COc1ccc(-c2cnc3nc(N)nc(OC(C)C)c3n2)cc1 | < 5.00 | 5.21 |
| COc1ccc(-c2cnc3nc(N)nc(N4CCOCC4)c3n2)cc1OC | 7.00 | 6.40 |
| CC(C)Oc1nc(N)nc2ncc(-c3ccc(F)c(F)c3)nc12 | 5.00 | 5.18 |
| COc1ccc(-c2cnc3nc(N)nc(N4CCN(Cc5ccccc5)CC4)c3n2)cc1OC |  | 7.05 |
| COc1ccc(-c2cnc3nc(N)nc(N4CCN(c5cc(Cl)cc(Cl)c5)CC4)c3n2)cc1OC | 5.47 | 6.30 |
| COc1ccc(-c2cnc3nc(N)nc(N4CCN(C(=O)Nc5cccc(C)c5)CC4)c3n2)cc1OC | 8.15 | 7.00 |
| COc1ccc(-c2cnc3nc(N)nc(NCCc4ccccc4)c3n2)cc1OC | 5.22 | 5.15 |
| COc1ccc(-c2cnc3nc(N)nc(N4CCN(Cc5c(Cl)cccc5Cl)CC4)c3n2)cc1OC | 5.12 | 6.15 |
| COc1ccc(-c2cnc3nc(N)nc(N4CCN(c5ccccc5)CC4)c3n2)cc1OC | 6.40 | 7.30 |
| CCOc1nc(N)nc2ncc(-c3cccc(OC)c3)nc12 | 5.08 | 5.00 |
| COc1ccc(-c2cnc3nc(N)nc(N4CCSCC4)c3n2)cc1OC | 6.40 | 6.30 |
| CCOc1nc(N)nc2ncc(-c3ccc(Cl)c(Cl)c3)nc12 | < 5.00 | < 5.00 |
| COc1ccc(-c2cnc3nc(N)nc(N4CCN(C(=O)CCc5ccccc5)CC4)c3n2)cc1OC | 7.00 | 8.00 |
| COc1ccc(-c2cnc3nc(N)nc(N4CCN(C(=O)Nc5ccc(F)cc5)CC4)c3n2)cc1OC | 8.15 | 6.29 |
| CCOc1nc(N)nc2ncc(-c3ccc(C#N)cc3)nc12 | < 5.00 | < 5.00 |
| COc1ccc(-c2cnc3nc(N)nc(N4CCN(C(=O)COc5ccc(Cl)cc5)CC4)c3n2)cc1OC | 9.30 | 7.11 |
